Results on four compounds are retold here after patent publication US20230391845A1, “GLP-1, GIP AND GLUCAGON RECEPTOR TRIPLE AGONISTS” (priority 2020, published 2023).

Series [1] is described as follows: Pharmacokinetic study in minipigs, i.v. administration. Details: species or system Göttingen minipigs. Particulars: female, Göttingen, minipig, in vivo, iv. As for the experimental part:
The purpose of this example is to determine the half-life in vivo of the triple agonists as described herein after i.v. administration to minipigs, i.e. the prolongation of their time in the body and thereby their time of action. This is done in a pharmacokinetic (PK) study, where the terminal half-life of the triple agonist in question is determined. By terminal half-life is generally meant the period of time it takes to halve a certain plasma concentration, measured after the initial distribution phase.
Female Göttingen minipigs were obtained from Ellegaard Göttingen Minipigs (Dalmose, Denmark) approximately 7-14 months of age and weighing from approximately 16-35 kg were used in the studies. The minipigs were housed individually and fed restrictedly once daily with SDS minipig diet (Special Diets Services, Essex, UK).
After at 3 weeks of acclimatisation two permanent central venous catheters were implanted in vena cava caudalis in each animal. The animals were allowed 1 week recovery after the surgery, and were then used for repeated pharmacokinetic studies with a suitable wash-out period between successive dosings.
The animals were fasted for approximately 18 hours before dosing and from 0 to 4 hours after dosing, but had adlibitum access to water during the whole period.
Intravenous injections (the volume corresponding to usually 1.5-2 nmol/kg, for example 0.1 mL/kg) of the triple agonists were given through one catheter, and blood was sampled at predefined time points for up to 14 days post dosing (preferably through the other catheter). Blood samples (for example 0.8 mL) were collected in 8 mM EDTA buffer and then centrifuged at 4° C. and 1942 g for 10 minutes.
Plasma was pipetted into Micronic tubes on dry ice and kept at −20° C. until analysed for plasma concentration of the triple agonists using ELISA, or a similar antibody-based assay, or LCMS. Individual plasma concentration-time profiles were analysed by a non-compartmental model in Phoenix WinNonLin ver. 6.4. (Pharsight Inc., Mountain View, CA, USA), and the resulting terminal half-lives (harmonic mean) determined.

The next series deals with T1, human GLP-1 receptor (Homo sapiens, UniProt P43220).
T1 construct: expressed in transfected cells; host or cells: BHK cells (parent line BHKTS13) containing CRE luciferase
T1 sequence (P43220 24-463): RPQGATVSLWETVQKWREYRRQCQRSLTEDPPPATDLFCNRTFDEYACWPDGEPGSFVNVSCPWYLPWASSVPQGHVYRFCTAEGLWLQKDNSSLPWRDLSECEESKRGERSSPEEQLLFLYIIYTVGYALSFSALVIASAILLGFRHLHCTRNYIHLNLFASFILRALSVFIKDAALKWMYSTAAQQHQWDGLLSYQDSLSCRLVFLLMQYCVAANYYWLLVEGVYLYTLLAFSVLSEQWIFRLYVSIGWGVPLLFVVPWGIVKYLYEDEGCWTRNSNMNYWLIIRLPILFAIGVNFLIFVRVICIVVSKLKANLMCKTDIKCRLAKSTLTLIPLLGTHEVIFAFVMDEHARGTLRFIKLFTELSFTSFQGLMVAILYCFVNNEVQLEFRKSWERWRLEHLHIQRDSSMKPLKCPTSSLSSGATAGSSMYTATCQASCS
Nature of the series: In vitro functional potency (CRE luciferase; whole cells), human GLP-1R. In kind it is cell-based. As to conditions: BHK CRE luc2P hGLP-1R whole cells; Table 2; read-out: hGLP-1R CRE Luc EC50.

*1 amine or outer side, *2 acyl side, *3 side chain or, on linkers, in order; H or OH if unused. Where a SMILES comes first, the peptide text is derived from it. Side-chain parts run from the residue outwards. [ ]: non-standard residue; d: D form. The star is where a group is joined. C20 diacid = O=C(O)CCCCCCCCCCCCCCCCCCC(=O)*; γGlu = O=C(O)[C@H](CCC(=O)[*:2])N[*:1]; εLys = N[C@@H](CCCCN[*:1])C(=O)[*:2]; AEEA = NCCOCCOCC(=O)O; Aib = CC(C)(N)C(=O)O

As to `CC[C@H](C)[C@H](NC(=O)[C@H](CO)NC(=O)[C@H](Cc1ccc(O)cc1)NC(=O)[C@H](CC(=O)O)NC(=O)[C@H](CO)NC(=O)[C@@H](NC(=O)[C@H](Cc1ccccc1)NC(=O)[C@@H](NC(=O)CNC(=O)[C@H](CCC(N)=O)NC(=O)C(C)(C)NC(=O)[C@@H](N)Cc1ccc(O)cc1)[C@@H](C)O)[C@@H](C)O)C(=O)N[C@@H](Cc1ccc(O)cc1)C(=O)N[C@@H](CC(C)C)C(=O)N[C@@H](CC(=O)O)C(=O)N[C@@H](CCCCN)C(=O)N[C@@H](CCCCNC(=O)COCCOCCNC(=O)COCCOCCNC(=O)CC[C@H](NC(=O)CCCCCCCCCCCCCCCCCCC(=O)O)C(=O)O)C(=O)N[C@@H](C)C(=O)N[C@@H](C)C(=O)NC(C)(C)C(=O)N[C@@H](CCC(=O)O)C(=O)N[C@@H](Cc1ccccc1)C(=O)N[C@H](C(=O)N[C@@H](CC(N)=O)C(=O)N[C@@H](Cc1c[nH]c2ccccc12)C(=O)N[C@@H](CC(C)C)C(=O)N[C@@H](CC(C)C)C(=O)N[C@@H](C)C(=O)NCC(=O)NCC(=O)N1CCC[C@H]1C(=O)N[C@@H](CO)C(=O)N[C@@H](CO)C(=O)NCC(=O)N[C@@H](C)C(=O)N1CCC[C@H]1C(=O)N1CCC[C@H]1C(=O)N1CCC[C@H]1C(=O)N[C@@H](CO)C(N)=O)C(C)C` [Compound No. 9] (H-Y[Aib]QGTFTSDYSIYLDKK([AEEA-AEEA-γGlu-C20 diacid])AA[Aib]EFVNWLLAGGPSSGAPPPS-NH2), the half-life – broadly, how long it takes for the measured level to halve – in series [1] is 103 h. The EC50 – broadly, the midpoint of the concentration-response curve – on human GLP-1 receptor was determined as 4.4 pM.
The like results for `CC[C@H](C)[C@H](NC(=O)[C@H](CO)NC(=O)[C@H](Cc1ccc(O)cc1)NC(=O)[C@H](CC(=O)O)NC(=O)[C@H](CO)NC(=O)[C@@H](NC(=O)[C@H](Cc1ccccc1)NC(=O)[C@@H](NC(=O)CNC(=O)[C@H](Cc1c[nH]cn1)NC(=O)C(C)(C)NC(=O)[C@@H](N)Cc1c[nH]cn1)[C@@H](C)O)[C@@H](C)O)C(=O)N[C@@H](Cc1ccc(O)cc1)C(=O)N[C@@H](CC(C)C)C(=O)N[C@@H](CCC(=O)O)C(=O)N[C@@H](CCCCNC(=O)COCCOCCNC(=O)COCCOCCNC(=O)CC[C@H](NC(=O)CCCCCCCCCCCCCCCCCCC(=O)O)C(=O)O)C(=O)N[C@@H](CCCCN)C(=O)N[C@@H](Cc1ccc(O)cc1)C(=O)N[C@@H](C)C(=O)NC(C)(C)C(=O)N[C@@H](CCC(=O)O)C(=O)N[C@@H](Cc1ccccc1)C(=O)N[C@H](C(=O)N[C@@H](CCC(N)=O)C(=O)N[C@@H](Cc1c[nH]c2ccccc12)C(=O)N[C@@H](CC(C)C)C(=O)N[C@@H](CC(C)C)C(=O)N[C@@H](CCC(=O)O)C(=O)NCC(=O)NCC(=O)N1CCC[C@H]1C(=O)N[C@@H](CO)C(=O)N[C@@H](CO)C(=O)NCC(=O)N[C@@H](C)C(=O)N1CCC[C@H]1C(=O)N1CCC[C@H]1C(=O)N1CCC[C@H]1C(=O)N[C@@H](CO)C(N)=O)C(C)C` [Compound No. 39] (H-H[Aib]HGTFTSDYSIYLEK([AEEA-AEEA-γGlu-C20 diacid])KYA[Aib]EFVQWLLEGGPSSGAPPPS-NH2) were, in that order, 66 h and 4.4 pM.
The like results for `CC(C)C[C@H](NC(=O)[C@H](CC(C)C)NC(=O)[C@H](Cc1c[nH]c2ccccc12)NC(=O)[C@H](CCC(N)=O)NC(=O)[C@@H](NC(=O)[C@H](Cc1ccccc1)NC(=O)[C@H](CCC(=O)O)NC(=O)C(C)(C)NC(=O)[C@H](C)NC(=O)[C@H](C)NC(=O)[C@H](CCCCN)NC(=O)[C@H](CCCCNC(=O)[C@@H](N)CCCCNC(=O)[C@@H](N)CCCCNC(=O)CC[C@H](NC(=O)CCCCCCCCCCCCCCCCCCC(=O)O)C(=O)O)NC(=O)[C@H](CCC(=O)O)NC(=O)[C@H](CC(C)C)NC(=O)[C@H](Cc1ccc(O)cc1)NC(=O)[C@H](Cc1ccc(O)cc1)NC(=O)[C@H](CO)NC(=O)[C@H](Cc1ccc(O)cc1)NC(=O)[C@H](CC(=O)O)NC(=O)[C@H](CO)NC(=O)[C@@H](NC(=O)[C@H](Cc1ccccc1)NC(=O)[C@@H](NC(=O)CNC(=O)[C@H](Cc1c[nH]cn1)NC(=O)C(C)(C)NC(=O)[C@@H](N)Cc1c[nH]cn1)[C@@H](C)O)[C@@H](C)O)C(C)C)C(=O)N[C@@H](CCC(=O)O)C(=O)NCC(=O)NCC(=O)N1CCC[C@H]1C(=O)N[C@@H](CO)C(=O)N[C@@H](CO)C(=O)NCC(=O)N[C@@H](C)C(=O)N1CCC[C@H]1C(=O)N1CCC[C@H]1C(=O)N1CCC[C@H]1C(=O)N[C@@H](CO)C(N)=O` [Compound No. 31] (H-H[Aib]HGTFTSDYSYYLEK([εLys-εLys-γGlu-C20 diacid])KAA[Aib]EFVQWLLEGGPSSGAPPPS-NH2; N-terminus assumed) were, in that order, 55 h and 3 pM.
In turn, `CC(C)C[C@H](NC(=O)[C@H](CC(C)C)NC(=O)[C@H](Cc1c[nH]c2ccccc12)NC(=O)[C@H](CCC(N)=O)NC(=O)[C@@H](NC(=O)[C@H](Cc1ccccc1)NC(=O)[C@H](CCC(=O)O)NC(=O)C(C)(C)NC(=O)[C@H](C)NC(=O)[C@H](C)NC(=O)[C@H](CCC(N)=O)NC(=O)[C@H](CCCCNC(=O)[C@@H](N)CCCCNC(=O)[C@@H](N)CCCCNC(=O)CC[C@H](NC(=O)CCCCCCCCCCCCCCCCCCC(=O)O)C(=O)O)NC(=O)[C@H](CCC(=O)O)NC(=O)[C@H](CC(C)C)NC(=O)[C@H](CC(C)C)NC(=O)[C@H](Cc1ccc(O)cc1)NC(=O)[C@H](CO)NC(=O)[C@H](Cc1ccc(O)cc1)NC(=O)[C@H](CC(=O)O)NC(=O)[C@H](CO)NC(=O)[C@@H](NC(=O)[C@H](Cc1ccccc1)NC(=O)[C@@H](NC(=O)CNC(=O)[C@H](Cc1c[nH]cn1)NC(=O)C(C)(C)NC(=O)[C@@H](N)Cc1c[nH]cn1)[C@@H](C)O)[C@@H](C)O)C(C)C)C(=O)N[C@@H](CCC(=O)O)C(=O)NCC(=O)NCC(=O)N1CCC[C@H]1C(=O)N[C@@H](CO)C(=O)N[C@@H](CO)C(=O)NCC(=O)N[C@@H](C)C(=O)N1CCC[C@H]1C(=O)N1CCC[C@H]1C(=O)N1CCC[C@H]1C(=O)N[C@@H](CO)C(N)=O` [Compound No. 42] (H-H[Aib]HGTFTSDYSYLLEK([εLys-εLys-γGlu-C20 diacid])QAA[Aib]EFVQWLLEGGPSSGAPPPS-NH2; N-terminus assumed) had a half-life in series [1] of 66 h.
